For data set [1] the following is noted: human.
Description: At 37±0.5° C., the hydrolysis rate of the prodrugs was measured in 80% human plasma. An appropriate aliquot (20-100 μL) of 1 mg/ml prodrug solution in methanol was transferred to 5.0 ml of preheated plasma. At appropriate time intervals, 300 μl sample aliquots were withdrawn and transferred to 600 μl acetonitrile and mixed thoroughly. After centrifugation at 13500 rpm for 5 min, the supernatant was analyzed by HPLC for parent drug and remaining prodrug.
The nature of data set [2]: Stability (cleavage to parent drug) of prodrug suspensions in PBS pH 7.4. It counts as physicochemical. The settings on record: for estimated pseudo first-order rate constant (khyd) for cleavage: PBS pH 7.4, 37° C., calculated from k0 and Sprodrug; for apparent pseudo-zero-order rate constant (k0): appearance of parent drug from suspension in PBS pH 7.4, 37° C.
Description: Suspensions of the prodrugs in 67 mM phosphate buffer pH 7.4 (PBS) were prepared by adding 10 mL PBS to approximately 5 mg prodrug. The suspensions were kept unstirred at 37° C. in an incubator hood. At appropriate time intervals over 23 days, about 500 μL samples were taken and after filtration (disposable syringe filters), the solutions were analyzed immediately by HPLC for parent drug and remaining prodrug. Quantitation of parent drug and prodrug was done from peak area measurements in relations to those of standards analysed by HPLC at the same conditions. […] Reversed phase chromatography was performed using a C18 Gemini® RP column (150×4.6 mm, 5 μm particles) (Phenomenex, Torrance, Calif., USA) equipped with a SecurityGuard precolumn (Phenomenex, Torrance, Calif., USA). The flow rate was set at 1 mL/min and the column effluent was monitored at 230 nm. The mobile phase consisted of 35% (v/v) acetonitrile and 65% (v/v) of 0.1% (v/v) phosphoric acid pH 3.2. The retention times varied in the range of 3 to 30 min.
From the observed relatively stable concentration of dissolved prodrugs measured in the suspensions after 8-9 day up to 23 days, the solubilities of the prodrugs (Sprodrug) were determined. In this time interval, the rate of appearance of parent drug was determined and an apparent pseudo-zero-order rate constant (k0) was obtained. By assuming that the dissolution rates were much faster than the conversion of the prodrugs to the parent drug, pseudo first-order rate constants (khyd) for cleavage of the prodrugs were calculated according to:
Data set [3] in a line: Solubility of the prodrugs in PBS (67 mM phosphate buffer pH 7.4) at 37° C. The settings on record: 67 mM phosphate buffer pH 7.4 (PBS), aqueous buffer, thermodynamic from solid, read-out: Sprodrug ± SD. The class given is physicochemical.
Description: The determination of the solubility of a prodrug at different pH values of interest according to the present invention is carried by adding excess solid prodrug to a container containing a buffer solution with well-defined pH. The mixture is rotated at constant temperature until an equilibrium between solid prodrug and prodrug in solution has established (that is until the prodrug concentration in the supernatant remains constant). At each measurement the pH of the supernatant is controlled and eventually adjusted to the desired pH.
Suspensions of the prodrugs in 67 mM phosphate buffer pH 7.4 (PBS) were prepared by adding 10 mL PBS to approximately 5 mg prodrug. The suspensions were kept unstirred at 37° C. in an incubator hood. At appropriate time intervals over 23 days, about 500 μL samples were taken and after filtration (disposable syringe filters), the solutions were analyzed immediately by HPLC for parent drug and remaining prodrug. Quantitation of parent drug and prodrug was done from peak area measurements in relations to those of standards analysed by HPLC at the same conditions. […] The flow rate was set at 1 mL/min and the column effluent was monitored at 230 nm. […]
From the observed relatively stable concentration of dissolved prodrugs measured in the suspensions after 8-9 day up to 23 days, the solubilities of the prodrugs (Sprodrug) were determined. […]
Data set [4] in a line: Solubility of DPX-2-0006 at pH 3 in the presence of N,N-dimethyl acetamide (DMA). The note with it: aqueous with cosolvent or surfactant or cyclodextrin, thermodynamic from solid, acidic suspension (pH 3), 37° C. It counts as physicochemical. As for the experimental part:
A suspension of DPX-2-0006 was formed by adding 10 mg to 3 mL demineralized water, 0.05 mL 0.100 M HCl was added to obtain a pH of 3. After rotation of the suspension at 37° C. for 1 days, 0.5 mL sample was taken and after filtration (disposable syringe filters), the solution was diluted in methanol:water 1:1 and analyzed immediately by HPLC for prodrug. […] The HPLC method described in Example 29 was applied and the retention time of DPX-2-0006 was 14 min, respectively. N,N-dimethylacetamide (DMA) was added stepwise to the acidic suspension of DPX-2-0006 and the amount of DPX-2-0006 dissolved in the presence of various volumes of DMA was determined after 1-3 days rotation at 37° C. as described above.

A short description of data set [5]: Precipitation on addition of acidic prodrug solution to 67 mM phosphate buffer pH 7.4. The class given is physicochemical. The note with it: 1.0 mL concentrated aqueous solution pH 3.4 added to 1.0 mL 67 mM phosphate buffer pH 7.4. As for the experimental part:
The pH in the suspension was measured to 7.0.

SMILES strings stand for the structures. Values after ≈ are worked out from the molar mass of the structure shown. Like-named read-outs stand apart in the source and are kept apart here.

Turning to `COc1ccc2cc(C(C)C(=O)OCCn3ccnc3)ccc2c1` (stereo not shown), the “t1/2 in plasma (hydrolysis)” value in data set [1] was 1.07 h.

Regarding `O=C(Cc1ccccc1Nc1c(Cl)cccc1Cl)OCCc1ccccn1` [DPX-1-0004, 2-(pyridin-2-yl)ethyl 2-(2-((2,6-dichlorophenyl)amino)phenyl)acetate], in data set [2], the “estimated pseudo first-order rate constant (khyd) for cleavage” value is 0.15 day⁻¹ and the “apparent pseudo-zero-order rate constant (k0)” value came to 1.1e-06 M/day.

As to `O=C(Cc1ccccc1Nc1c(Cl)cccc1Cl)OCCn1cnc2ccccc21` [DPX-1-0006, 2-(1H-benzo[d]imidazol-1-yl)ethyl 2-(2-((2,6-dichlorophenyl)amino)phenyl)acetate], in data set [2], the “estimated pseudo first-order rate constant (khyd) for cleavage” value was 0.17 day⁻¹ and the “apparent pseudo-zero-order rate constant (k0)” value amounted to 2.4e-06 M/day.

Turning to `O=C(Cc1ccccc1Nc1c(Cl)cccc1Cl)OCCn1ccnc1-c1ccccc1` [DPX-1-0007, 2-(2-phenyl-1H-imidazol-1-yl)ethyl 2-(2-((2,6-dichlorophenyl)amino)phenyl)acetate], in data set [2], the “estimated pseudo first-order rate constant (khyd) for cleavage” value is 0.0029 day⁻¹ and the “apparent pseudo-zero-order rate constant (k0)” value was 2.5e-07 M/day.

As to `COc1ccc2cc(C(C)C(=O)OCCc3ccccn3)ccc2c1` (stereo not shown) [DPX-2-0004, 2-(pyridin-2-yl)ethyl 2-(6-methoxynaphthalen-2-yl)propanoate], in data set [2], the “estimated pseudo first-order rate constant (khyd) for cleavage” value is 0.033 day⁻¹ and the “apparent pseudo-zero-order rate constant (k0)” value was 1.7e-06 M/day.

On to `COc1ccc2cc(C(C)C(=O)OCCn3cnc4ccccc43)ccc2c1` (stereo not shown) [DPX-2-0006, 2-(1H-benzo[d]imidazol-1-yl)ethyl 2-(6-methoxynaphthalen-2-yl)propanoate], for which the solubility thermodynamic in data set [3] was determined as 5 ± 1 µg/mL (≈ 13.4 µM). Besides, the solubility in data set [4] (acidified demineralized water with 5% (v/v) DMA, 5% (v/v) DMA, read-out: solubility in the presence of 5% (v/v) DMA) stood at 250 µg/mL; in data set [4] (acidified demineralized water with 15% (v/v) DMA, 15% (v/v) DMA, read-out: solubility in the presence of 15% (v/v) DMA) it was 350 µg/mL; in data set [4] (acidified demineralized water with 30% (v/v) DMA, 30% (v/v) DMA, read-out: solubility in the presence of 30% (v/v) DMA) it was 570 µg/mL; in data set [4] (acidified demineralized water with 50% (v/v) DMA, 50% (v/v) DMA, read-out: solubility in the presence of 50% (v/v) DMA), 2250 µg/mL. Further, the “estimated pseudo first-order rate constant (khyd) for cleavage” value in data set [2] is 0.066 day⁻¹. Moreover, in data set [2], the “apparent pseudo-zero-order rate constant (k0)” value was 1e-06 M/day.

As to `COc1ccc2cc(C(C)C(=O)OCCn3ccnc3-c3ccccc3)ccc2c1` (stereo not shown) [DPX-2-0007, 2-(2-phenyl-1H-imidazol-1-yl)ethyl 2-(6-methoxynaphthalen-2-yl)propanoate], in data set [5], the “precipitation on mixing with buffer pH 7.4” value is listed as “a precipitation was immediately observed”. In addition, in data set [2], the “estimated pseudo first-order rate constant (khyd) for cleavage” value is 0.065 day⁻¹ and the “apparent pseudo-zero-order rate constant (k0)” value came out at 1e-06 M/day.

The record behind these values is patent US9937262B2 (priority 2013, dated 2018).
